Data taken from EP0332679B1, “ANTIVIRAL CO[…] […] AND METHOD FOR TREATING […]” (NEW YORK UNIVERSITY, priority 1987, dated 1989).
Several values for one entry are separate records, joined by “and”; a condition that tells them apart may be missing. Equal values may be shown once. Entries after “also recorded” stand apart in the source; their conditions may differ.

What was measured:
[1] = tested on: Friend Leukemia Virus (FV); assay: Splenomegaly after Friend Leukemia Virus infection, compound given intraperitoneally 24 h after intravenous virus; type: in vivo, BALB/c mice; settings: for Spleen weight: individual mice
Excerpt: Friend Leukemia virus (FV) an aggressive retrovirus induces an acute erythroleukemia in sensitive strains of mice such as BALB/c and NIH SWISS mice (as described in Friend, C. J. Exp. Med. 105: 307-324, 1957; Friend, C. et al Nat. Cancer Inst. Monogr. 22: 505-522, 1966; Friend, C. et al Proc. Natl. Acad. Sci. U.S.A. 68: 378-383, 1971). The malignant transformation is the result of the combined activities of the spleen focus forming virus (SFFV) and the ecotropic murine Friend Leukemia helper virus (F-MuLv). The acute erythroleukemia is characterized by hepatosplenomegaly (a marked increase in the size of the spleen and liver) and a severe anemia.
Friend Leukemia virus was prepared by homogenizing the enlarged spleen of a mouse previously infected with FV, 10 days after intravenous virus injection. The spleen was homogenized in phosphate buffered saline in a volume equal to 10 times the weight of the isolated spleen.
The effects of Hy and Ps on the increase in spleen size (splenomegaly) of BALB/c mice (Jackson Labs, Bar Harbor, ME) was examined. […] The animals were then sacrificed ten days later and their spleens weighed.

[2] = tested on: Friend Leukemia Virus (FV); assay: Splenomegaly after simultaneous intravenous co-administration of compound with FV; type: in vivo, mice; settings: for Spleen Weights: individual mice
Experimental: A different experimental design was also tested involving the simultaneous intravenous co-administration of Ps with the FV complex. In this case, the viral preparation was mixed with Ps at various concentrations and the mixture was injected into the mouse tail vein in a final volume of 0.5ml. The mice were sacrificed ten days later, the spleens weighed and the level of inhibition of splenomegaly subsequently determined.

[3] = tested on: Radiation Leukemia Virus (RadLV); assay: H-2 antigen expression in thymocytes (FACS) after intrathymic inoculation of radiation leukemia virus; type: in vivo, B10.T(6R) mice
Excerpt: The intrathymic inoculation of murine radiation leukemia virus in susceptible strains of mice results in the malignant transformation of the thymocytes and the development of overt leukemia (as described in Meruelo, D. et al J. Exp. Med. 147: 470-487, 1978). […] Among the early events which follow the viral infection in some mouse strains is a dramatic increase in the cell surface expression of class I H-2 antigens. This increase is then followed by a reduction in the expression of these antigens after the malignant transformation and subsequent development of leukemia. The changes in H-2 antigen expression have been utilized to monitor viral infectivity and to determine the effects of Hy and Ps on the level of infectivity of this virus.
Murine radiation leukemia virus (RadLV) was inoculated intrathymically into B10.T(6R) mice as described in Meruelo et al (supra). Groups of six mice were treated 24 h later with 30 µg per mouse of compound Hy administered intraperitoneally in isotonic saline solution. The mice were sacrificed ten days later and the expression of Class I H-2 antigens determined by analysis with a fluorescence activated cell sorter (Ortho Cytofluorograph Model 50H, Ortho Diagnostic Systems, Westwood, MA) (FACS), using X-56 anti-H-2D^d mouse monospecific antibodies (as described in Meruelo, et al supra; similar antibodies are available as ATCC No. HB75, American Type Culture Collection, Rockville, MD).

[4] = tested on: Friend Leukemia Virus (FV); assay: Liver function (serum liver-associated proteins) of FV infected mice with or without compound; type: in vivo, BALB/c mice; settings: for CHOLEST: pooled serum of 4 mice
Excerpt: BALB/c mice were inoculated with FV at a concentration of 2x10⁵ FFU. Each group of animals contained 4 mice, and analyses were done in pooled aliquots.
In Table 3, BU = Total Bilirubin, AP = Alkaline phosphatase, LDH = Lactate dehydrogenase, SGOT = Serum glutamyl aminotransferase, SGPT = […], and GGT = Gamma-glutamyl-transpeptidase.

[5] = in vivo; cited from earlier work
[6] = in vivo; cited from earlier work; remark: listed apart in the source
[7] = FV 2x10^5 FFU, 2 injections 80 μg/mouse
[8] = FV 2x10^5 FFU, single i.p. injection 80 μg/mouse
[9] = FV 10^6 FFU, 2 injections 80 µg/mouse
[10] = FV 10^6 FFU, single i.p. injection 80 µg/mouse
[11] = IPFVIVPS: FV intraperitoneal, Ps intravenous, pooled serum
[12] = IVFVIPPS: FV intravenous, Ps intraperitoneal, pooled serum

## Cc1cc(O)c2c(=O)c3c(O)cc(O)c4c5c(O)cc(O)c6c(=O)c7c(O)cc(CO)c8c1c2c(c34)c(c65)c78 [Ps, pseudohypericin]
[1]; [7]
  % Inhib (splenomegaly): 81.7%
  Net change from control (spleen weight): Net change from control=0.1292
  Spleen weight, mean (x̄): x̄=0.3138±0.1197 g
  Spleen weight: 0.2722 Spleen weight (g ) and 0.2438 Spleen weight (g ) and 0.4924 Spleen weight (g ) and 0.2469 Spleen weight (g )
[1]; FV 2x10^5 FFU, 2 injections 80 μg/mouse, listed as PS
  % Inhib (splenomegaly): % Inhib=81.15
[1]; [8]
  % Inhib (splenomegaly): 89.6%
  Net change from control (spleen weight): Net change from control=0.0714
  Spleen weight, mean (x̄): x̄=0.2560±0.0723 g
  Spleen weight: 0.2208 Spleen weight (g ) and 0.1791 Spleen weight (g ) and 0.3457 Spleen weight (g ) and 0.2784 Spleen weight (g )
[1]; FV 2x10^5 FFU, single i.p. injection 80 μg/mouse, listed as PS
  % Inhib (splenomegaly): % Inhib=89.58
[1]; [9]
  % Inhib (splenomegaly): 90.7%
  Net change from control (spleen weight): Net change from control=0.0841
  Spleen weight, mean (x̄): x̄=0.2687±0.0621 g
[1]; FV 10^6 FFU, 2 injections 80 µg/mouse, listed as PS
  % Inhib (splenomegaly): % Inhib=90.70
[1]; [10]
  % Inhib (splenomegaly): 93.8%
  Net change from control (spleen weight): Net change from control=0.0558
  Spleen weight, mean (x̄): x̄=0.2404±0.0482 g
[1]; FV 10^6 FFU, single i.p. injection 80 µg/mouse, listed as PS
  % Inhib (splenomegaly): % Inhib=93.82
[1]; FV 10^6 FFU i.v., 2 daily consecutive i.p. injections of 80 µg/mouse
  Spleen weight: 0.2457 Spleen weight (g ) and 0.3400 Spleen weight (g ) and 0.2938 Spleen weight (g ) and 0.1956 Spleen weight (g )
[1]; FV 10^6 FFU i.v., single i.p. injection 80 µg/mouse 24 h later, sacrificed ten days later
  Spleen weight: 0.2831 Spleen weight (g ) and 0.2761 Spleen weight (g ) and 0.2215 Spleen weight (g ) and 0.1810 Spleen weight (g )
[2]; 5mcg per mouse i.v. with FV
  % inhibition (splenomegaly): 75.44%
  Spleen Weights, mean (x̄): x̄=0.3862 ±0.0353 grams
[2]; 5mcg per mouse i.v. with FV, listed as PS
  % inhibition (splenomegaly): = 75.44%
[2]; 20 mcg per mouse i.v. with FV
  % inhibition (splenomegaly): 100%
  Spleen Weights, mean (x̄): x̄=0.1614 ±0.0253 grams
[2]; 20 mcg per mouse i.v. with FV, listed as PS
  % inhibition (splenomegaly): 100%
[2]; 50mcg per mouse i.v. with FV
  % inhibition (splenomegaly): 100%
  Spleen Weights, mean (x̄): x̄=0.1572 ±0.0217 grams
[2]; 50mcg per mouse i.v. with FV, listed as PS
  % inhibition (splenomegaly): 100%
[2]; 5mcg per mouse i.v. mixed with FV, sacrificed ten days later
  Spleen Weights: 0.3425 grams and 0.3766 grams and 0.4005 grams and 0.4255 grams
[2]; 20 mcg per mouse i.v. mixed with FV
  Spleen Weights: 0.1655 grams and 0.1426 grams and 0.1433 grams and 0.1966 grams
[2]; 50mcg per mouse i.v. mixed with FV
  Spleen Weights: 0.1830 grams and 0.1674 grams and 0.1422 grams and 0.1365 grams
[3]; 30 µg per mouse i.p. 24 h after viral inoculation
  effect on RadLV-induced increase in H-2 expression (in words): No effects on H-2 expression
[3]; individual mice, 30 μg/mouse i.p. 24 h after intrathymic RadLV, thymocytes ten days later
  mean fluorescent intensity in fluorescent units: (713.3) fluorescent units; also recorded: (639) fluorescent units
[3]; individual mice, 30 μg/mouse i.p. 24 h after intrathymic RadLV, thymocytes ten days later, anti-H-2D^d antibody
  % of cells stained with antibody: 97.4% and 94.3%
[4]; IPFVIVPS: FV intraperitoneal (2x10^5 FFU), Ps intravenous
  CHOLEST: 137 mg/dL
[4]; [11]
  ALBUMIN: 3.2 g/dL
  AP (Alkaline phosphatase): 200 IU/l
  BU (Total Bilirubin): 0.3 mg/dL
  GGT (Gamma-glutamyl-transpeptidase): 4 miu/ml
  LDH (Lactate dehydrogenase): 2305 IU/l
  SGOT: 244 IU/l
  SGPT: 135 IU/l
  Total PROTEIN: 5.5 g/dL
[4]; IVFVIPPS: FV intravenous (2x10^5 FFU), Ps intraperitoneal
  CHOLEST: 109 mg/dL
[4]; [12]
  ALBUMIN: 3.4 g/dL
  AP (Alkaline phosphatase): 226 IU/l
  BU (Total Bilirubin): 0.1 mg/dL
  LDH (Lactate dehydrogenase): 3303 IU/l
  SGOT: 213 IU/l
  SGPT: 99 IU/l
  Total PROTEIN: 5.7 g/dL

## Cc1cc(O)c2c(=O)c3c(O)cc(O)c4c5c(O)cc(O)c6c(=O)c7c(O)cc(C)c8c1c2c(c34)c(c78)c65 [Hy, hypericin]
[3]; mouse, in vivo
  % inhibition (of virus-induced increase in H-2 antigen expression): (1) % inhibition = 100-[(Treated 30 μg) - (Base Line) / Virus Induced - Base Line] x100=82%
[3]; mouse, in vivo, ip
  % of cells stained with antibody: 76.7% and 77.2% and 96.3% and 84.8% and 54.0% and 97.8%
  % of cells stained with antibody, mean (x̄): x̄=81.13%
  effect on RadLV-induced increase in H-2 expression (in words): significant inhibition in the increase in H-2 expression in four of the six mice tested
[5]
  photosensitivity (in words): produce photosensitivity upon ingestion
[6]
  effect on the human organism (in words): tonic and tranquilizing effect
